Source: patent publication US20230132386A9, “GRANZYME B DIRECTED IMAGING AND THERAPY” (CytoSite Biopharma Inc., priority 2019, published 2023)

Columns and labels:
[1] = molecular target: T1, Granzyme B (human lymphocytes) (Homo sapiens, UniProt P10144); experiment: human Granzyme B biochemical assay; conditions: Granzyme B (human lymphocytes) 5 nM, substrate Ac-IETD-AFC 200 μM, 30 mins incubation, 22° C.
T1 construct: Supplied Granzyme B (human lymphocytes) enzyme is reconstituted to 1 mg/ml (about 31.25 μM); purchased Enzo Lifesciences ALX-200-602-0010; host or cells: human lymphocytes
T1 sequence (P10144 21-247): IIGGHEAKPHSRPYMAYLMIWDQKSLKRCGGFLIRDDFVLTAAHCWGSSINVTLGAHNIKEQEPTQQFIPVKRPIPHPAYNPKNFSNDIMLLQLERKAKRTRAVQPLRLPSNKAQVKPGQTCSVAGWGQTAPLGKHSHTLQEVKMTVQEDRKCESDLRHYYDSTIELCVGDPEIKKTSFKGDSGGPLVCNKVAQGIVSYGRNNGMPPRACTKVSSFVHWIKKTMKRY
Excerpt: The compounds of Formula I described above can be tested using the human Granzyme B biochemical assay provided below.
• 1. Granzyme B (human lymphocytes) Enzyme: Enzo Lifesciences, Cat #ALX-200-602-0010 • 2. Substrate (Ac-IETD-AFC): Enzo Lifesciences, Cat #ALX-260-110-M010 • 3. Standard inhibitor (Compound 20-Isomer3): Synthesized internally in TCG • 4. Dimethyl sulfoxide (DMSO): Sigma-Aldrich, Cat #41639 • 5. HEPES: Gibco, Cat #15630-080 • 6. Calcium chloride: Sigma-Aldrich, Cat #C-5080 • 7. Distilled water: Gibco, Cat #15230-162 • 8. Bovine serum albumin (BSA): Sigma-Aldrich, Cat #A3059 • 9. Black, clear bottom PDL plate (384 wells): Greiner bio-one, Cat #781946 • 10. Polypropylene plate (384 wells): Corning, Cat #3657
• 1. DMSO is added to the respective compound vial to make 10 mM Compound stock solution, which is stored at −20° C. • 2. 10 mM Compound stock solution is thawed and 1 mM DMSO stock solution is prepared by adding 45 μl of DMSO to 5 μl of 10 mM compound stock solution. • 3. 1 mM DMSO stock solution is serially diluted (3.16 fold) by adding 10 μl of 1 mM DMSO stock to 21.6 μl of DMSO and mixed well. 10 μl of the resulting solution is then added to 21.6 μl of DMSO and mixed well. This process is continued to created 11 dilution points for the assay standard inhibitor and 8 dilution points for test compounds in 384 well polypropylene plate. • 4. 2 μl of each dilution are dispensed in assay ready plate. 5. Each well is then diluted 25 fold by adding 48 μl of assay buffer to 2 μl of compound in assay ready plate to make Compound working stock.
• 1. Supplied Granzyme B (human lymphocytes) enzyme is reconstituted to 1 mg/ml (about 31.25 μM) and 1 μl aliquots are kept in −80° C. • 2. 1 μl aliquot is diluted to 625 nM by adding 49 μl of assay buffer containing 0.1% BSA and gently mixed. • 3. 10 nM enzyme working stock is prepared by adding assay buffer containing 0.1% BSA.
• 1. Supplied substrate (Ac-IETD-AFC) is reconstituted by adding DMSO to make 10 mM stock, aliquoted and stored in −80° C. • 2. 4 mM substrate mid stock is prepared by adding DMSO. • 3. Substrate working stock i.e. 800 μM is prepared by adding assay buffer.
• 1. 10 μl of serially diluted Compound working stock (start dose 40 μM) is added from assay ready plate to assay plate according to the plate map. • 2. Positive control (40 μM of standard inhibitor) and negative control (4% DMSO buffer) are added to the respective wells. • 3. 20 μl of Enzyme working stock is added to assay plate and gently mixed. • 4. The plate is incubated at 22° C. for 30 mins and spun at 130 g for 1 minute. • 5. After incubation, 10 μl of Substrate working stock is added to respective wells and mixed (Assay plate is maintained in dark after substrate addition). • 6. The plate is incubated at 22° C. for 60 mins and spun at 130 g for 1 minute. • 7. Fluorescence read (RFU) (Ex: 400 nm/Em: 505 nm) is taken after 60 mins in EnVision Multimode plate reader.
• 1. The RFU read is analyzed to calculate percent inhibition by normalizing with positive and negative controls taken as 100% and 0% effect respectively in Microsoft excel. • 2. Graph is generated by putting the analyzed data in GraphPad prism 5.0 software to get IC50 value for each compound.

[2] = metabolic stability assay using liver microsomes; assay type: in vitro ADME; conditions: human liver microsomes 0.4 mg/ml, 1 μM, NRS, 37° C.
Method: In addition, compounds of Formula I described above are also tested in the metabolic stability assay using liver microsomes, as provided below.
Buffer pH7.4: Prepare 1 (M) KH2PO4 and 1 (M) K2HPO4. Titrate 1(M) K2HPO4 with 1 (M) KH2PO4 to obtain pH 7.40. Dilute this buffer 10 fold in Water (30 ml buffer+270 ml of water) to obtain 100 mM phosphate buffer. Adjust pH to 7.40±0.02 using 5(N) HCl or 5(N) NaOH.
NADPH Regeneration System (NRS): Prepare a solution containing 13 mM NADP, 33 mM Glucose-6-phosphate, 33 mM MgCl2 and 4 U/ml Glucose-6-phosphate dehydrogenase in buffer.
Liver Microsome (LM) suspension: Thaw LM vial on ice, then mix 1.0 ml LM (20 mg/ml) with 19 ml buffer [final LM Conc: 1 mg/ml]
LM+NRS suspension: Mix 5.0 ml NRS with 20 ml LM suspension [final LM Conc: 0.8 mg/ml]
System suitability standard: a synthesized compound having Mol wt 686.2 used as System suitability standard. Dissolve this compound in ice-cold acetonitrile to obtain concentration of 0.1 μg/ml and store at 4° C.
Sub stock (100 μM): 4 μl of 10 mM Compound Stock+398 μl Acetonitrile Working plate (2 μM): 10 μl of 100 μM Sub stock+490 μl buffer
Incubate all plastic materials including tips at 37° C. overnight.
Incubate LM suspension and NRS at 37° C. for 15 min before use.
Add 40 μl buffer to the wells of blank plate.
Add 40 μl compound (from working plate) to 0, 5, 10, 20, 30 and 60 min plates.
Initiate reaction by adding 40 μl of LM+NRS suspension in each plate.
Terminate reaction by adding 240 μl ice-cold acetonitrile containing system suitability standard at designated time points. For T=0 add 240 μl ice-cold acetonitrile containing system suitability standard before LM+NRS addition.
Centrifuge (3500 rpm, 20 min and 15° C.) the plates.
Mix 110 μl supernatant with 110 μl water and quantitate amount of Compound in the solution using LC-MS/MS.
% Remaining at t=x min=100×([LC-MS/MS peak area of analyte]t=x min)/([LC-MS/MS peak area of analyte]t=0min)
Human LM: Corning, Cat #25117
Certain compounds of this disclosure were tested in the microsomal stability assay provided above.

| IC50 [1] | Human Liver Microsomes % remaining @30 min [2] | Compound |
| --- | --- | --- |
| 301 to 1000 nM | – | CC[C@H](C)[C@@H](C(=O)N[C@H]1CCc2cccc3c2N(C1=O)[C@H](C(=O)NCc1c[nH]nn1)C3)N(C)C(=O)CC(=O)O (single isomer, unassigned) [Compound C190] |
| 301 to 1000 nM | – | CC[C@H](C)[C@@H](C(=O)N[C@H]1CCc2cccc3c2N(C1=O)[C@H](C(=O)NCc1c[nH]nn1)C3)N(CCOCCCF)C(=O)Cc1nc2ccccc2o1 (single isomer, unassigned) [Compound C179] |
| 301 to 1000 nM | 66.3% | CC[C@H](C)[C@@H](C(=O)N[C@H]1CCc2cccc3c2N(C1=O)[C@H](C(=O)NCc1c[nH]nn1)C3)N(C)C(=O)COCCF (single isomer, unassigned) [Compound C155] |
| 301 to 1000 nM | 72.8% | CC[C@H](C)[C@@H](C(=O)N[C@H]1CCc2cccc3c2N(C1=O)[C@H](C(=O)NCc1c[nH]nn1)C3)N(C)C(=O)CC(=O)NC (single isomer, unassigned) [Compound C192] |
| 301 to 1000 nM | – | CC[C@H](C)[C@@H](C(=O)N[C@H]1CCc2cccc3c2N(C1=O)[C@H](C(=O)NCc1c[nH]nn1)C3)N(C)C(=O)Cc1c[nH]cn1 (single isomer, unassigned) [Compound C197] |
| 301 to 1000 nM | – | CC[C@H](C)[C@@H](C(=O)N[C@H]1CCc2cccc3c2N(C1=O)[C@H](C(=O)NCc1c[nH]nn1)C3)N(CCOCCF)C(C)=O (single isomer, unassigned) [Compound C203] |
| 301 to 1000 nM | – | CC[C@H](C)[C@@H](C(=O)N[C@H]1CCc2cccc3c2N(C1=O)[C@H](C(=O)NCc1c[nH]nn1)C3)N(CC)C(=O)COCCF (single isomer, unassigned) [Compound C176] |
| 301 to 1000 nM | 55.4% | CC[C@H](C)[C@@H](C(=O)N[C@H]1CCc2cccc3c2N(C1=O)[C@H](C(=O)NCc1c[nH]nn1)C3)N(C)C(=O)Cn1ccnc1 (single isomer, unassigned) [Compound C198] |
| > 5000 nM | – | CC[C@H](C)[C@@H](C(=O)N[C@H]1CCc2cccc3c2N(C1=O)[C@H](C(=O)NCc1c[nH]nn1)C3)N(CCc1csc2ccccc12)C(C)=O (single isomer, unassigned) [Compound C184] |
| 301 to 1000 nM | – | CC[C@H](C)[C@@H](C(=O)N[C@H]1CCc2cccc3c2N(C1=O)[C@H](C(=O)NCc1c[nH]nn1)C3)N(C)C(=O)CC(=O)OC (single isomer, unassigned) [Compound C194] |
| 301 to 1000 nM | – | CC[C@H](C)[C@@H](C(=O)N[C@H]1CCc2cccc3c2N(C1=O)[C@H](C(=O)NCc1c[nH]nn1)C3)N(C)C(=O)Cc1csc2ccccc12 (single isomer, unassigned) [Compound C152] |
| 301 to 1000 nM | 0.8% | CC[C@H](C)[C@@H](C(=O)N[C@H]1CCc2cccc3c2N(C1=O)[C@H](C(=O)NCc1c[nH]nn1)C3)N(CCOCCF)C(=O)Cc1nc2ccccc2o1 (single isomer, unassigned) [Compound C178] |
| 301 to 1000 nM | 98.2% | CC[C@H](C)[C@@H](C(=O)N[C@H]1CCc2cccc3c2N(C1=O)[C@H](C(=O)NCc1c[nH]nn1)C3)N(CCC(=O)O)C(=O)COCCF (single isomer, unassigned) [Compound C230] |
| 1000 to 5000 nM | – | CC[C@H](C)[C@@H](C(=O)N[C@H]1CCc2cccc3c2N(C1=O)[C@H](C(=O)NCc1c[nH]nn1)C3)N(C(=O)COCCF)C(C)C (single isomer, unassigned) [Compound C177] |
| 301 to 1000 nM | – | CC[C@H](C)[C@@H](C(=O)N[C@H]1CCc2cccc3c2N(C1=O)[C@H](C(=O)NCc1c[nH]nn1)C3)N(C)C(=O)CC(=O)N(C)C (single isomer, unassigned) [Compound C193] |
| 301 to 1000 nM | 83.6% | CC[C@H](C)[C@@H](C(=O)N[C@H]1CCc2cccc3c2N(C1=O)[C@H](C(=O)NCc1c[nH]nn1)C3)N(C)C(=O)CC(N)=O (single isomer, unassigned) [Compound C191] |

| Compound | IC50 [1] | Human Liver Microsomes % remaining @30 min [2] |
| --- | --- | --- |
| N-Methyl-N-((1S,2S)-2-methyl-1- {(1S,8S)-9-oxo-1-[(1H-[1,2,3]triazol- 4-y lmethyl)-carbamoyl]-1,2,8,9- tetrahydro-7H-6-oxa-9a-aza- benzo[cd]azu1en-8-ylcarbamoyl}- butyl)-malonamic acid [Compound C214] | 301 to 1000 nM | 100.0% |
